Test results published in patent US20230183239A1, “ECTONUCLEOTIDE PYROPHOSPHATASE-PHOSPHODIESTERASE 1 (ENPP-1) INHIBITORS AND USES THEREOF” (AbbVie Inc., priority 2017, published 2023).

Legend:
Format in all cases: biochemical
ENPP1 [1] = biological target: T1, ENPP1 (Homo sapiens, UniProt P22413); experiment: Substrate selectivity ratio, inhibition of cGAMP hydrolysis versus ATP hydrolysis; settings: ratio Ki AMP-pNP / Ki cGAMP
T1 sequence (P22413 1-925): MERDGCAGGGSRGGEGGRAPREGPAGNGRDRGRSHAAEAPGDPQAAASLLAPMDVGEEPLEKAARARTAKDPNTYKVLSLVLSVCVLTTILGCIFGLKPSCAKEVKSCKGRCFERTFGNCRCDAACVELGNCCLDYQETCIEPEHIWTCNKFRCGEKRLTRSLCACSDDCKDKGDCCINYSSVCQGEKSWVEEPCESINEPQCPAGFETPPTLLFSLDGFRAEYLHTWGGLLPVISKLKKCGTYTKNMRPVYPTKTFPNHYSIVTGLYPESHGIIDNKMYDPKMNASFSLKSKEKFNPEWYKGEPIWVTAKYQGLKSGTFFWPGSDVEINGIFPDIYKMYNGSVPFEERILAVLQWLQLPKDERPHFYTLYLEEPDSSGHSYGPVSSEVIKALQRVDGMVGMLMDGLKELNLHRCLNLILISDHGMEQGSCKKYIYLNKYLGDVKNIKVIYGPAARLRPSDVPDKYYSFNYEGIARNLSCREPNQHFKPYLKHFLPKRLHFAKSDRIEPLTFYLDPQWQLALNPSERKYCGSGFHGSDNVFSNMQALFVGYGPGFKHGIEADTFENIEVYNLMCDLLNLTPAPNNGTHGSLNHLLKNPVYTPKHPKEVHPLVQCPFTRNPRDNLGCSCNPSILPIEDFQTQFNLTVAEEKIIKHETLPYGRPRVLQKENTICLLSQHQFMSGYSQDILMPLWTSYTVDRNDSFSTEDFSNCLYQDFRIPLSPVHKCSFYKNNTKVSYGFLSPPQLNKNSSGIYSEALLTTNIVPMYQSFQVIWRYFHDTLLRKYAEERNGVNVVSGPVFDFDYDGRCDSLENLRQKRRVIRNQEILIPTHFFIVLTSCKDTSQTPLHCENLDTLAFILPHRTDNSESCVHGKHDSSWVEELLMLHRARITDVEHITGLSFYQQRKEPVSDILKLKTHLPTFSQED
Experimental: The selectivity ratios for inhibition of cGAMP hydrolysis versus ATP hydrolysis were then calculated as follows: […]

ENPP1 [2] = biological target: T1, ENPP1; experiment: Indirect quantitation of 2',3'-cGAMP hydrolysis (AMP-Glo Assay kit); settings: cGAMP substrate; Ki from IC50 by Cheng-Prusoff; read-out: ENPP1 Inhibition -cGAMP: Ki
ENPP1 [3] = biological target: T1, ENPP1; experiment: ENPP1 enzyme assay with AMP-pNP substrate (hydrolysis of ATP analog); settings: AMP-pNP substrate (ATP analog); Ki from IC50 by Cheng-Prusoff; read-out: ENPP1 Inhibition _AMP-pNP: Ki
Experimental: The ENPP1 assay with AMP-pNP substrate is conducted in a buffer containing 50 mM Tris-HCl (pH 8.5)/ 250 mM NaCl/0.5 mM CaCl2/1 µM ZnCl2/0.1% DMSO. Inhibitors are added at final concentrations ranging between 10 µM and 30 pM depending on the compound. Duplicate wells are run at each inhibitor concentration. The final assay volume is 40 µL and human recombinant ENPP1 is present at 60 ng/well. The assay is initiated by the addition of substrate (300 µM AMP-pNP final concentration), and incubated for 20 minutes at 37° C. […] Each assay plate also includes wells with no enzyme added (MIN OD) and wells with no inhibitor added (MAX OD). The percent inhibition of ENPP1 for each sample is then calculated as: […]
IC50 values of compounds were calculated by entering the percent inhibition values into a sigmoidal variable slope nonlinear regression model in GraphPad Prism® software.

Substrate Selectivity: Ki_AMP-pNP/Ki_cGAMP (ENPP1 [1])	Ki (ENPP1 [2])	Ki (ENPP1 [3])	Compound
22.4	< 0.1 µM	0.1 to 1 µM	COc1cc2ncnc(N3CCc4cc(NS(N)(=O)=O)ccc4C3)c2cc1OC [Example 137, N-(2-(6,7-dimethoxyquinazolin-4-yl)-1,2,3,4-tetrahydroisoquinolin-6-yl)sulfamide]
39.2	< 0.1 µM	0.1 to 1 µM	COc1ccc2c(N3CCC(CCNS(N)(=O)=O)CC3)ncnc2c1 [Example 198, N-(2-(1-(7-methoxyquinazolin-4-yl)piperidin-4-yl)ethyl)sulfamide]
>562	< 0.1 µM	> 1 µM	COc1cc2nccc(Oc3ccc(NS(N)(=O)=O)cc3)c2cc1OC [Example 125, N-(4-((6,7-dimethoxyquinolin-4-yl)oxy)phenyl)sulfamide]
>32	< 0.1 µM	> 1 µM	COc1ccc2c(-c3ccc4c(c3)CN(S(N)(=O)=O)CC4)c(C)cnc2c1 [Example 371, 7-(7-methoxy-3-methylquinolin-4-yl)-3,4-dihydroisoquinoline-2(1H)-sulfonamide]
30.7	< 0.1 µM	0.1 to 1 µM	COc1cc2nccc(N3CCc4cc(NS(N)(=O)=O)ccc43)c2cc1OC [Example 281, N-(1-(6,7-dimethoxyquinolin-4-yl)indolin-5-yl)sulfamide]
39	< 0.1 µM	0.1 to 1 µM	COc1ccc2c(-c3ccc(CNS(N)(=O)=O)cc3)c(C(F)(F)F)cnc2c1 [Example 386, N-(4-(7-methoxy-3-(trifluoromethyl)quinolin-4-yl)benzyl) sulfamide]
>31.1	< 0.1 µM	> 1 µM	COc1cc2nccc(Oc3ccc(N(O)C=O)cc3)c2cc1OC [Example 292, N-(4-((6,7-dimethoxyquinolin-4-yl)oxy)phenyl)-N-hydroxyformamide]
51.9	< 0.1 µM	0.1 to 1 µM	COc1ccc2c(Oc3ccc(NS(N)(=O)=O)cc3)ncnc2n1 [Example 227, N-(4-((7-methoxypyrido[2,3-d]pyrimidin-4-yl)oxy)phenyl)sulfamide]
33.6	< 0.1 µM	0.1 to 1 µM	COc1ccc2ncnc(N3CCC(CCNS(N)(=O)=O)CC3)c2c1 [Example 199, N-(2-(1-(6-methoxyquinazolin-4-yl)piperidin-4-yl)ethyl)sulfamide]
>89	0.1 to 1 µM	> 1 µM	COc1ccc2c(Oc3ccc(S(N)(=O)=O)cc3)c(C(F)(F)F)cnc2c1 [Example 377, 4-((7-methoxy-3-(trifluoromethyl)quinolin-4-yl)oxy) benzenesulfonamide]
35.1	< 0.1 µM	< 0.1 µM	COc1cc2ncc(F)c(N3CCC(CCNS(N)(=O)=O)CC3)c2cc1OC [Example 66, N-(2-(1-(3-fluoro-6,7-dimethoxyquinolin-4-yl)piperidin-4-yl)ethyl)sulfamide]
> 31.4	< 0.1 µM	> 1 µM	COc1cc2ncnc(NC(C)c3ccc(NS(N)(=O)=O)cc3)c2cc1OC (stereo in doubt) [Example 254, (S)-N-(4-(1-((6,7-dimethoxyquinazolin-4-yl)amino)ethyl)phenyl)sulfamide]
> 126	0.1 to 1 µM	> 1 µM	COc1cc2nccc(N3CCCc4cc(NS(N)(=O)=O)ccc43)c2cc1OC [Example 291, N-(6′,7′-dimethoxy-3,4-dihydro-2H-[1,4′-biquinolin]-6-yl)sulfamide]
62	< 0.1 µM	0.1 to 1 µM	COc1cc2nccc(-c3ccc(CNS(N)(=O)=O)cc3)c2cc1F [Example 239, N-(4-(6-fluoro-7-methoxyquinolin-4-yl)benzyl)sulfamide]
16.3	< 0.1 µM	0.1 to 1 µM	NS(=O)(=O)N1CCC2(CCN(c3ncnc4ccccc34)CC2)C1 [Example 158, 8-(quinazolin-4-yl)-2,8-diazaspiro [4.5] decane-2-sulfonamide]
>134	0.1 to 1 µM	> 1 µM	COc1cc2ccc(=O)n(Cc3ccc(NS(N)(=O)=O)cc3)c2cc1OC [Example 126, N-(4-((6,7-dimethoxy-2-oxoquinolin-1(2H)-yl)methyl)phenyl) sulfamide]
5.4	< 0.1 µM	< 0.1 µM	COc1cc2ncc(C3CC3)c(-c3ccc4c(c3)CN(S(N)(=O)=O)CC4)c2cc1OC [Example 283, 7-(3-cyclopropyl-6,7-dimethoxyquinolin-4-yl)-3,4-dihydroisoquinoline-2(1H)-sulfonamide]
>271	0.1 to 1 µM	> 1 µM	COc1cc(F)c2c(N3CCc4cc(NS(N)(=O)=O)ccc43)ccnc2c1 [Example 412, N-(1-(5-fluoro-7-methoxyquinolin-4-yl)indolin-5-yl)sulfamide]
> 7.1	0.1 to 1 µM	> 1 µM	NS(=O)(=O)NCCC1CCN(c2ncnc3c2CCNC3)CC1 [Example 232, N-(2-(1-(5,6,7,8-tetrahydropyrido[3,4-d]pyrimidin-4-yl)piperidin-4-yl)ethyl)sulfamide]
> 15.3	0.1 to 1 µM	> 1 µM	COc1cc2nccc(N3CC4(C3)CN(S(N)(=O)=O)C4)c2cc1OC [Example 214, 6-(6,7-dimethoxyquinolin-4-yl)-2,6-diazaspiro[3.3]heptane-2-sulfonamide]
30.9	< 0.1 µM	< 0.1 µM	COc1ccc2c(Nc3ccc(NS(N)(=O)=O)cc3)ccnc2n1 [Example 231, N-(4-((7-methoxy-1,8-naphthyridin-4-yl)amino)phenyl)sulfamide]
>5.9	< 0.1 µM	0.1 to 1 µM	COc1cc2ncc(-c3ccc(CNS(N)(=O)=O)cc3)n2cc1OC [Example 266, N-(4-(6,7-dimethoxyimidazo[1,2-a]pyridin-3-yl)benzyl)sulfamide]
79.4	< 0.1 µM	0.1 to 1 µM	COc1cc2ncnc(NC(C)c3ccc(NS(N)(=O)=O)cc3)c2cc1OC (stereo in doubt) [Example 253, (R)-N-(4-(1-((6,7-dimethoxyquinazolin-4-yl)amino)ethyl)phenyl)sulfamide]
> 8.00	0.1 to 1 µM	> 1 µM	COc1cc2c(N3CCC(CCNS(N)(=O)=O)CC3)ncnc2cc1Cl [Example 185, N-(2-(1-(7-chloro-6-methoxyquinazolin-4-yl)piperidin-4-yl)ethyl)sulfamide]
>81.3	< 0.1 µM	> 1 µM	COc1ccc2ncc(C#N)c(-c3ccc(CNS(N)(=O)=O)cc3)c2c1 [Example 240, N-(4-(3-cyano-6-methoxyquinolin-4-yl)benzyl)sulfamide]

Compound	Substrate Selectivity: Ki_AMP-pNP/Ki_cGAMP (ENPP1 [1])	Ki (ENPP1 [2])	Ki (ENPP1 [3])
COc1ccc2c(N3CCC4(CCNC4)CC3)c(C#N)cnc2c1 [Example 275, 7-methoxy-4-(2,8-diazaspiro[4.5]decan-8-yl)quinoline-3-carbonitrile]	>7.7	0.1 to 1 µM	> 1 µM
